{
  "source": "patent US12637479B2",
  "about": "“Low energy gap small molecule material and organic optoelectronic device using the same” (Raynergy Tek Incorporation, priority 2021, dated 2026)",
  "assay_type_in_all_cases": "physicochemical",
  "key": {"[1]": {"experiment": "Solubility measurement in o-xylene", "details": "8 mg sample in 1 mL o-xylene", "excerpt": "Among them, “O” means complete dissolution, and “X” means incomplete dissolution. […] In the art, it is an industry trend to use non-halogenated green solvents. Green solvents generally come from renewable resources or can be degraded by soil organisms or other substances, have a short half-life, and are easily decayed into low-toxic and non-toxic substances. Therefore, green solvents are generally less harmful to biological health and the environment than general solvents that are easily chlorinated or highly toxic. Green solvents are also called environmentally friendly solvents. O-xylene is a non-halogen green solvent."}, "[2]": {"experiment": "Energy levels by cyclic voltammetry (HOMO, LUMO)", "procedure": "(§1) The highest occupied molecular orbital (HOMO) is calculated from HOMO=−|4.71÷E^xo−E^ferroncene|eV. The optical energy gap\n(§2) [formula] of the UV-Vis-NIR absorption spectrum in film state. The lowest unoccupied molecular orbital (LUMO) is calculated from LUMO=HOMO+Eg eV."}, "[3]": {"experiment": "UV-Vis-NIR absorption spectra in chloroform solution", "procedure": "(§3) Please refer to FIG. 2 to FIG. 4 and Table 1.\nas §1"}, "[4]": {"experiment": "UV-Vis-NIR absorption spectra in film, optical energy gap from absorption onset", "procedure": "as §3, §1\n[formula] of the material is known from the absorption onset position\nas §2"}},
  "data": [
    {"smiles": "CCCCCCCCCCCCc1cc(-c2c3c(c(-c4cc(CCCCCCCCCCCC)c(-c5cc6c(s5)-c5sc(-c7sc(-c8c9c(c(-c%10cc(CCCCCCCCCCCC)c(/C=C%11\\C(=O)c%12cc(F)c(F)cc%12C%11=C(C#N)C#N)s%10)c%10nn(CC(CC)CCCC)nc8%10)N=S=N9)cc7CCCCCCCCCCCC)cc5C6(c5cc(CCCCCC)cc(CCCCCC)c5)c5cc(CCCCCC)cc(CCCCCC)c5)s4)c4nn(CC(CC)CCCC)nc24)N=S=N3)sc1/C=C1\\C(=O)c2cc(F)c(F)cc2C1=C(C#N)C#N", "note": "(centres unmarked) [Q4]", "values": [
      {"measurement": "Solubility", "setting": "[1]", "value": "◯"},
      {"measurement": "LUMO", "setting": "[2]; LUMO=HOMO+Eg", "value": "−4.32", "unit": "eV"},
      {"measurement": "HOMO", "setting": "[2]; cyclic voltammetry", "value": "−5.17", "unit": "eV"},
      {"measurement": "λsoln^max", "setting": "[3]; chloroform solution", "value": 965, "unit": "nm"},
      {"measurement": "ε", "setting": "[3]; maximum absorption coefficient", "value": "1.41 10^5 cm^−1 M^−1"},
      {"measurement": "λfilm^max", "setting": "[4]; film", "value": 1029, "unit": "nm"},
      {"measurement": "λfilm^onset", "setting": "[4]; film", "value": 1455, "unit": "nm"},
      {"measurement": "Eg^opt", "setting": "[4]; from absorption onset in film state", "value": 0.85, "unit": "eV"}
    ]}
  ]
}
